Reference: patent US20240181007A1, “COMPOSITIONS AND METHODS FOR TREATING PULMONARY HYPERTENSION” (Acceleron Pharma Inc., priority 2021, published 2024)

Assays:
TAC-PH mice [1] = assay: Transverse aortic constriction (TAC) induced PH mouse model, BALB/cJ (Example 12); format: in vivo; settings: day 42, relative to TAC PBS
Excerpt: (§1) The effects of an ActRIIA-mFc fusion polypeptide (SEQ ID NO: 56) was examined in a mouse model of left ventricular systolic dysfunction (also referred to as HErEF) of pulmonary hypertension (PH) and valvular heart disease. In this model, BALB/cJ mice underwent transverse aortic constriction (TAC) to induce left heart failure, and right heart and pulmonary remodeling. See, e.g., Xiong P Y. et al. Hypertension 2018, 71(1):34-55 and Chen Y. et al. Hypertension 2012, 59(6):1170-1178.
Forty-four BALB/cJ male mice (10 wks old) underwent TAC surgery and fourteen age-matched animals underwent a mock surgical procedure (Sham) at day 0. Two weeks after the surgery, TAC-PH mice were randomized into three groups. i) fourteen mice were injected subcutaneously with vehicle control (phosphate buffered saline (PBS)), twice weekly for 4 weeks starting from day 14 after surgery, “TAC PBS”; ii) fifteen mice were injected subcutaneously with ActRIIA-mFc at a dose of 3 mg/kg twice weekly for 4 weeks starting from day 14 after TAC surgery, “TAC ActRIIA-mFc 3 mpk”; and iii) fifteen mice were injected subcutaneously with ActRIIA-mFc at a dose of 10 mg/kg twice weekly for 4 weeks starting from day 14 after TAC surgery, “TAC ActRIIA-mFc 10 mpk.” At the end of the study, echocardiography and pressure-volume catheter were performed to measure left and right ventricular remodeling and functional changes before animals were euthanized for heart and lung collection. Hearts and lungs of each mouse were weighed, fixed in 10% formalin, embedded in paraffin, and sectioned for Masson's trichrome stain to assess fibrosis.
(§2) Prior to euthanasia, in vivo cardiac function was assessed by transthoracic echocardiography (Acuson P300, 18 MHz transducer; Siemens) in conscious mice. From left ventricle (LV) short axis view, M-mode echocardiogram was acquired to measure left ventricle end diastolic diameter (LVEDD), and left ventricle end systolic diameter (LVESD). Fractional shortening (FS) was calculated from the end-diastolic diameter (EDD) and end-systolic diameter (ESD) using the following equation: FS=100%×[(EDD−ESD)/EDD]. Early diastolic filling peak velocity (E), early diastolic mitral annular velocity (E′), and isovolumetric relaxation time (IVRT) were measured from the medial or septal wall at the mitral valve level from tissue Doppler image. LV diastolic function was assessed by measuring the E/E′ ratio and IVRT. Three to five beats were averaged for each mouse measurement. RV free wall thickness (RVFWT) was measured using M-mode in a modified parasternal long-axis view through the aortic valve. Pulmonary artery acceleration time (PAAT) was measured as the time from start to peak velocity of blood flow in the lumen of the main pulmonary artery distal to the pulmonary valve as obtained from the pulse-wave doppler recording.
On day 42, mice were anesthetized by an intraperitoneal injection of ketamine/xylazine (100/5 mg/kg) to evaluate left and right ventricular function by Millar pressure-volume conductance catheter. The respiration was supported by a small animal ventilator.
Thoracotomy was made through 4-5 intercostal space, and the heart was exposed. A pressure-volume catheter (1.0-Fr, PVR-1035, Millar Instruments, Houston, TX, USA) was inserted into the left ventricle and right ventricle from the apex. Ventricular pressure and volume were calculated with LabChart 7 software. Ejection fraction was derived. Afterwards, animals were euthanized for heart and lung collection. Cardiac hypertrophy was measured by heart weight (HW) normalized by tibial length (TL). Left ventricle (LV), right ventricle (RV) and lung of each mouse were separated, fixed in 10% formalin, embedded in paraffin, and sectioned for Masson's trichrome stain to assess fibrosis. Serum and urine samples were collected at the end of the study.

TAC-PH mice [2] = assay: Transverse aortic constriction (TAC) induced PH mouse model, C57BL/6 (Example 9); format: in vivo; settings: 10 mg/kg s.c. twice weekly for 4 weeks from day 14 after TAC, day 42, relative to TAC-PH/PBS
Excerpt: as §1, with “(PH).” for “(PH) and valvular heart disease.”, “C57BL/6” for “BALB/cJ”, “Y,” for “Y.”
Twenty-six C57/B6 male mice (10 wks old) underwent TAC surgery and ten age-matched animals underwent a mock surgical procedure (Sham) at day 0. Two weeks after the surgery, TAC-PH mice were randomized into two groups. i) fourteen mice were injected subcutaneously with vehicle control (phosphate buffered saline (PBS)), twice weekly for 4 weeks starting from day 14 after surgery, “TAC-PH/PBS”: and a ii) twelve mice were injected subcutaneously with ActRIIA-mFc at a dose of 10 mg/kg twice weekly for 4 weeks starting from day 14 after TAC surgery, “TAC-PH/ActRII-mFc”. At the end of the study, echocardiography and pressure-volume catheter were performed to measure left and right ventricular remodeling and functional changes before animals were euthanized for heart and lung collection. Hearts and lungs of each mouse were weighed, fixed in 10% formalin, embedded in paraffin, and sectioned for Masson's trichrome stain to assess fibrosis.
as §2, with “Tricuspid annular plane systolic excursion (TAPSE), a parameter of global right ventricular function,” for “RV free wall thickness (RVFWT)”, “also measured.” for “measured using M-mode in a modified parasternal long-axis view through the aortic valve. Pulmonary artery acceleration time (PAAT) was measured as the time from start to peak velocity of blood flow in the lumen of the main pulmonary artery distal to the pulmonary valve as obtained from the pulse-wave doppler recording.”
On day 42, mice were anesthetized by an intraperitoneal injection of ketamine/xylazine (100/5 mg/kg) to evaluate left and right ventricular function by Millar pressure-volume conductance catheter. The respiration was supported by a small animal ventilator. Thoracotomy was made through 4-5 intercostal space, and the heart was exposed. A pressure-volume catheter (1.0-Fr, PVR-1035, Millar Instruments, Houston, TX, USA) was inserted into the left ventricle and right ventricle from the apex. Ventricular pressure and volume were calculated with LabChart 7 software. Stroke work, ejection fraction, maximum and minimum rate of pressure development (+dp/dtm, −dp/dtm) were derived.

Substance: ActRIIA-mFc: ActRIIA-mFc fusion polypeptide (SEQ ID NO: 56); extracellular domain fused to murine IgG2a Fc domain with a linker
- LV ejection fraction (TAC-PH mice [1]; 3 mpk or 10 mpk s.c. twice weekly for 4 weeks from day 14 after TAC, FIG. 45): restored LV ejection fraction
- cardiac hypertrophy, heart weight/tibia length (HW/TL) (TAC-PH mice [1]; 3 mpk or 10 mpk s.c. twice weekly for 4 weeks from day 14 after TAC, FIG. 46): significantly reduced cardiac hypertrophy
- IVRT (TAC-PH mice [1]; 3 mpk or 10 mpk s.c. twice weekly for 4 weeks from day 14 after TAC, FIG. 48): reduced IVRT
- RVSP (TAC-PH mice [1]; 3 mpk or 10 mpk s.c. twice weekly for 4 weeks from day 14 after TAC, FIG. 49): reduced RVSP
- RVFWT (TAC-PH mice [1]; 3 mpk or 10 mpk s.c. twice weekly for 4 weeks from day 14 after TAC, FIG. 50): significantly reduced elevated RVFWT
- PAAT (TAC-PH mice [1]; 3 mpk or 10 mpk s.c. twice weekly for 4 weeks from day 14 after TAC, FIG. 51): increased PAAT
- LV fibrosis (TAC-PH mice [1]; 3 mpk or 10 mpk s.c. twice weekly for 4 weeks from day 14 after TAC, FIG. 52): significantly reduced
- RV fibrosis (TAC-PH mice [1]; 3 mpk or 10 mpk s.c. twice weekly for 4 weeks from day 14 after TAC, FIG. 53): significantly reduced
- lung fibrosis (TAC-PH mice [1]; 3 mpk or 10 mpk s.c. twice weekly for 4 weeks from day 14 after TAC, FIG. 54): significantly reduced lung fibrosis
- E/E′ ratio (TAC-PH mice [1]; 3 mpk s.c. twice weekly for 4 weeks from day 14 after TAC, FIG. 47): reduced E/E′ ratio at 3 mpk
- cardiac hypertrophy, heart weight/body weight (HW/BW) (TAC-PH mice [2]; FIG. 15): significantly reduced cardiac hypertrophy
- fractional shortening (FS) (TAC-PH mice [2]; FIG. 16): elevated FS
- LV ejection fraction (TAC-PH mice [2]; FIG. 17): restored LV ejection fraction
- E/E′ ratio (TAC-PH mice [2]; FIG. 18): reduced E/E′ ratio
- isovolumetric relaxation time (IVRT) (TAC-PH mice [2]; FIG. 19): reduced IVRT
- right ventricle free wall thickness (RVFWT) (TAC-PH mice [2]; FIG. 20): significantly reduced elevated RVFWT
- tricuspid annular plane systolic excursion (TAPSE) (TAC-PH mice [2]; FIG. 21): increased reduced TAPSE
- RV stroke work (TAC-PH mice [2]; FIG. 22): reduced elevated RV stroke work
- minimum rate of pressure development in RV (−dp/dTmin) (TAC-PH mice [2]; FIG. 23): decreased increased RV−dp/dTmin
- lung weight (LW/TL) (TAC-PH mice [2]; FIG. 24): decreased lung weight
- lung fibrosis (TAC-PH mice [2]; FIG. 25): significantly reduced lung fibrosis
